Measured values reported in article PMC12608305, “Rapid Hemi-Synthesis of Multifunctional Amphiphilic Derivatives Based on Polyphenolic Extractives: Surface Activity, Antioxidant and Antibacterial Properties” (Molecules, 2025).
In brackets after ≈: the same amount, converted by molar mass. Read-outs that look alike come from different tables or passages of the source.

How the values were obtained:
[1] = Radical scavenging activity by the DPPH method; type: biochemical; details: DPPH 10^−4 M in methanol, triplicate
Protocol: This method measures the antioxidant capacity of a compound to reduce the purple-colored DPPH radical solution to yellow-colored DPPH-H. DPPH solution was prepared at a concentration of 10^−4 M in methanol. The IC50 was calculated using the formula IC50 = (y − b)/a obtained from the equation of the line y = ax + b where a is the directing coefficient and b the y-intercept. Each measurement was conducted in triplicate.

[2] = parameters: method as in doi:10.1016/j.fluid.2014.09.013; details: anhydrous catechin; cited from earlier work
Escherichia coli = assay: Antibacterial activity by resazurin reduction test; type: cell-based; details: fluorescence over 72 h, compounds in DMSO, triplicate, read-out: Antibacterial Activity Against E. coli: IC50
Source text: These properties are usually studied by dilution and disk diffusion assay. The resazurin test is another method that can be used for measuring antibacterial activity. It is a protocol based on cell viability assays. […] This process leads to the formation of a pink fluorescent substance called resorufin. This reduction allows bacterial metabolic activity to be measured directly by measuring fluorescence. This is used to determine the antibacterial activity of the compounds being tested, using a fluorescence microplate reader. The lower the resorufin production, the lower the measured fluorescence and the higher the antibacterial activity.
Resazurin is a blue colorant that reduces to the fluorescent pink resorufin when metabolized by the cells from bacterial respiratory chains. The metabolic activity of the cells was measured by reading the fluorescence over 72 h using a BioTek FLx800 Fluorescence Microplate Reader.
Strains of Escherichia coli were cultured for 12 h on solid LB medium (Luria–Bertani) at 35 °C. The next day, some colonies were taken and placed in a nutrient broth and incubated at 35 °C until an optical density of 0.4 was obtained. […] A control with ethoxyethanol was performed. A positive control to verify the growth of the bacteria in the absence of catechin or hemi-synthesis compound was performed as well. The IC50 was calculated using the formula IC50 = (y − b)/a obtained from the equation of the line y = ax + b, where a is the directing coefficient and b the y-intercept. Each measurement was conducted in triplicate.

[3] = Surface tension in water by the Wilhelmy plate method (surfactant properties); type: physicochemical; details: 25 °C; for Minimum occupied area per molecule at the air–water interface (σ): calculated from curve log C vs. γ; for Critical aggregation concentration (CAC): from curve log C vs. γ
Protocol: The surface tension (γ) in water was determined using the Wilhelmy plate method at 25 °C. […] With this curve, parameters such as critical aggregation concentration (CAC) and minimum occupied area per molecule at the air–water interface (σ) were calculated, as well as the surface tension that remains constant from CAC (γw).
Surface tension (γ) was obtained by the Wilhelmy plate method, using a Force Tensiometer KRUSS at 25 °C. […] The curve log C vs. γ allowed us to calculate critical aggregate concentration (CAC), minimum occupied area per molecule at the air–water interface (σ) and the surface tension (γw) that remains constant after the CAC was obtained. Each measurement was conducted in triplicate.

[4] = Water solubility by saturating water, lyophilizing and weighing; type: physicochemical; details: thermodynamic from solid; saturated water
Source text: Solubility in water was expressed in mol/L (M).

[5] = DPPH; cited from earlier work
E. coli = system: E. coli; parameters: method as in PMID 743641; details: cited from earlier work

Oc1cc(O)c2c(c1)O[C@H](c1ccc(O)c(O)c1)[C@@H](O)C2 [Catechin, (+)-catechin, reference compound]
Radical Scavenging Activity: IC50 [1]: 2.43 ± 0.03 µg/mL | Water Solubility [2]: 15700 µM | IC50 (Escherichia coli): 36 ± 2 mM

CCCCCCCCCCCC(=O)OC1Cc2c(O)cc(O)cc2OC1c1ccc(O)c(O)c1 (stereo not shown) [6b, 2-(3,4-Dihydroxyphenyl)-5,7-dihydroxychroman-3-yl dodecanoate]
Surface tension from CAC (γw) [3]: 49 mN/m | Minimum occupied area per molecule at the air–water interface (σ) [3]: 17 Å^2/molecule | Critical aggregation concentration (CAC) [3]: 680 µM | solubility [4]: 4800 µM (≈ 2270 µg/mL)

O=C(O)c1cc(O)c(O)c(O)c1 [gallic acid]
Radical Scavenging Activity: IC50 [5]: 2.04 ± 0.03 µg/mL

O=C(OC[C@H]1O[C@@H](OC(=O)c2cc(O)c(O)c(OC(=O)c3cc(O)c(O)c(O)c3)c2)[C@H](OC(=O)c2cc(O)c(O)c(OC(=O)c3cc(O)c(O)c(O)c3)c2)[C@@H](OC(=O)c2cc(O)c(O)c(OC(=O)c3cc(O)c(O)c(O)c3)c2)[C@@H]1OC(=O)c1cc(O)c(O)c(OC(=O)c2cc(O)c(O)c(O)c2)c1)c1cc(O)c(O)c(OC(=O)c2cc(O)c(O)c(O)c2)c1 [tannic acid]
Radical Scavenging Activity: IC50 [5]: 23.65 µg/mL

COc1cc(C[C@@H](CO)[C@H](CO)Cc2ccc(O)c(OC)c2)ccc1O [secoisolariciresinol]
Radical Scavenging Activity: IC50 [5]: 9.39 ± 0.01 µg/mL

COc1ccc(O)c(C(C)(C)C)c1 [BHA, Butylated hydroxyanisole]
Radical Scavenging Activity: IC50 [5]: 21.3 ± 0.12 µg/mL | growth of E. coli (E. coli; at concentrations above 100 μg/mL): 33%

CCCCCCCCCCCCCC(=O)OC1Cc2c(O)cc(O)cc2OC1c1ccc(O)c(O)c1 (stereo not shown) [6c, 2-(3,4-Dihydroxyphenyl)-5,7-dihydroxychroman-3-yl tetradecanoate]
Surface tension from CAC (γw) [3]: 41 mN/m | Minimum occupied area per molecule at the air–water interface (σ) [3]: 23 Å^2/molecule | Critical aggregation concentration (CAC) [3]: 590 µM | solubility [4]: 4800 µM (≈ 2400 µg/mL)

O=C(O)/C=C/c1ccc(O)c(O)c1 [caffeic acid]
Radical Scavenging Activity: IC50 [5]: 10.64 µg/mL

CCCCCCCCCCCCCC(=O)N[C@@H](C)C(=O)OC1Cc2c(O)cc(O)cc2OC1c1ccc(O)c(O)c1 (stereo partly shown) [7c, 2-(3,4-Dihydroxyphenyl)-5,7-dihydroxychroman-3-yl tetradecanoylalaninate]
Radical Scavenging Activity: IC50 [1]: 2.01 ± 0.05 µg/mL | Surface tension from CAC (γw) [3]: 33 mN/m | Minimum occupied area per molecule at the air–water interface (σ) [3]: 19 Å^2/molecule | Critical aggregation concentration (CAC) [3]: 40 µM | IC50 (Escherichia coli): 23 ± 1 mM | solubility [4]: 580 µM (≈ 332 µg/mL)

CCCCCCCCCCCCCCCC(=O)N[C@@H](C)C(=O)OC1Cc2c(O)cc(O)cc2OC1c1ccc(O)c(O)c1 (stereo partly shown) [7d, 2-(3,4-Dihydroxyphenyl)-5,7-dihydroxychroman-3-yl hexadecanoylalaninate]
Radical Scavenging Activity: IC50 [1]: 26.73 ± 0.43 µg/mL | Surface tension from CAC (γw) [3]: 32 mN/m | Minimum occupied area per molecule at the air–water interface (σ) [3]: 45 Å^2/molecule | Critical aggregation concentration (CAC) [3]: 2 µM | solubility [4]: 22 µM (≈ 13.2 µg/mL)

O=c1c(O)c(-c2ccc(O)c(O)c2)oc2cc(O)cc(O)c12 [quercetin]
Radical Scavenging Activity: IC50 [5]: 1.59 ± 0.02 µg/mL

CCCCCCCC(=O)N[C@@H](C)C(=O)OC1Cc2c(O)cc(O)cc2OC1c1ccc(O)c(O)c1 (stereo partly shown) [7a, 2-(3,4-Dihydroxyphenyl)-5,7-dihydroxychroman-3-yl octanoylalaninate]
Radical Scavenging Activity: IC50 [1]: 2.06 ± 0.04 µg/mL | Surface tension from CAC (γw) [3]: 35 mN/m | Minimum occupied area per molecule at the air–water interface (σ) [3]: 8 Å^2/molecule | Critical aggregation concentration (CAC) [3]: 100 µM | IC50 (Escherichia coli): 32 ± 3 mM | solubility [4]: 1300 µM (≈ 634 µg/mL)

CCCCCCCCCCCC(=O)N[C@@H](C)C(=O)OC1Cc2c(O)cc(O)cc2OC1c1ccc(O)c(O)c1 (stereo partly shown) [7b, 2-(3,4-Dihydroxyphenyl)-5,7-dihydroxychroman-3-yl dodecanoylalaninate]
Radical Scavenging Activity: IC50 [1]: 2.42 ± 0.06 µg/mL | Surface tension from CAC (γw) [3]: 32 mN/m | Minimum occupied area per molecule at the air–water interface (σ) [3]: 10 Å^2/molecule | Critical aggregation concentration (CAC) [3]: 50 µM | IC50 (Escherichia coli): 34 ± 3 mM | solubility [4]: 360 µM (≈ 196 µg/mL)

CCCCCCCC(=O)OC1Cc2c(O)cc(O)cc2OC1c1ccc(O)c(O)c1 (stereo not shown) [6a, 2-(3,4-Dihydroxyphenyl)-5,7-dihydroxychroman-3-yl octanoate]
Surface tension from CAC (γw) [3]: 43 mN/m | Minimum occupied area per molecule at the air–water interface (σ) [3]: 14 Å^2/molecule | Critical aggregation concentration (CAC) [3]: 890 µM | solubility [4]: 6000 µM (≈ 2500 µg/mL)

CCCCCCCCCCCCCCCC(=O)OC1Cc2c(O)cc(O)cc2OC1c1ccc(O)c(O)c1 (stereo not shown) [6d, 2-(3,4-Dihydroxyphenyl)-5,7-dihydroxychroman-3-yl hexadecanoate]
Surface tension from CAC (γw) [3]: 42 mN/m | Minimum occupied area per molecule at the air–water interface (σ) [3]: 29 Å^2/molecule | Critical aggregation concentration (CAC) [3]: 10 µM | solubility [4]: 240 µM (≈ 127 µg/mL)

Cc1cc(C(C)(C)C)c(O)c(C(C)(C)C)c1 [BHT, Butylated hydroxytoluene]
Radical Scavenging Activity: IC50 [5]: 12.8 ± 0.08 µg/mL | effect on growth of E. coli (E. coli; regardless of the concentration): fails to decrease the growth of E. coli

O=C1c2c(O)cc(O)cc2OC(c2ccc(O)c(O)c2)C1O (stereo not shown) [taxifolin]
Radical Scavenging Activity: IC50 [5]: 10.06 ± 1.08 µg/mL
